One data set relates to OB/OB female mice. Put plainly: Icv administration of compounds in ad-lib fed OB/OB female mice, food intake. The settings on record: I.C.V. injection in 100% DMSO, 5 μl, 4 hours post-injection, vehicle 0.61 ± 0.10, * significantly different from vehicle, p < 0.05. In kind it is in vivo. The text has this:
Protocol For Icv Administration of Compounds In Ad-Lib Fed OB/OB Female Mice.
Eight week old (approx. 50 g) OB/OB female mice were obtained from Jackson Laboratories (Bar Harbor, ME) and given one week to acclimate to the animal facility before the experiment. Animals were housed 10 per cage and were provided with food and water ad-lib. Immediately prior to injection, animals were removed from group housing and lightly anesthetized using 4% isofluorane vapor. Freehand intracerebroventricular (“icv”) injection of compounds was done in a 100% DMSO vehicle in a volume of 5 μl. Immediately following the injection, animals were placed in individual cages and were provided with a pre-weighed portion of regular chow pellets. Total amount of food consumed was measured at 1, 2, 4 and 24 hours post-injection.

Another data set concerns Male BALB-C mice. Put plainly: IP administration of compounds in fasted male BALB-C mice, 2 hr food intake. The data set is classed as in vivo. The following applies: Mus musculus; male BALB-C mice fasted 18-20 hr; 30 mg/kg (ip) in 2% tween; food given after 30 min, weighed 2 hr later; vs vehicle; read-out: inhibition of feeding (2 hr food intake). The text has this: Protocol For IP Administration Of Compounds In Male BALB-C Mice.
Male BALB-C mice (20-25 g)were obtained from Charles Rivers (Wilmington, Mass.) and were given at least a one week acclimation period to Amgen's animal care facilities. Animals were housed 10/cage and were provided ad libitum food and water. For testing, mice were fasted for 18-20 hr (overnight) prior to the start of the experiment. On the day of the experiment, mice were removed from group housing and placed into individual cages (without food). Test compounds or vehicle was then administered via the intraperitoneal (i.p.) route of administration. Test compounds were suspended in a 2% tween solution; the 2% tween solution was used as the vehicle treatment (control group). Group sizes for each treatment were 6-8 animals. After 30 min, premeasured food was placed into the cages. Two hours later, the food was weighed again. The difference between 2 hr weight and the premeasured weight was taken as 2 hr food intake.

Data set [1] concerns Long-Evans male rats. Put plainly: IP administration of compounds in fasted Long-Evans male rats, 2 hr food intake. The data set is classed as in vivo. The following applies: Rattus norvegicus; male Long Evans rats fasted 18-20 hr; 30 mg/kg (ip) in 2% tween; food given after 30 min, weighed 2 hr later; vs vehicle; read-out: inhibition of feeding (2 hr food intake). On the procedure:
Protocol for IP Administration of Compounds in Fasted Long-Evans Male Rats
Male Long Evans rats (85-100 g)were obtained from Harlan (Indianapolis, Ind.) and were given at least a one week acclimation period to Ambients animal care facilities. Animals were individually housed and were provided ad libitum food and water. For testing, rats were fasted for 18-20 hr (overnight) prior to the start of the experiment. On the test day, test compounds or vehicle was administered via the intraperitoneal (i.p.) route of administration. Test compounds were suspended in a 2% tween solution; the 2% tween solution was used as the vehicle treatment (control group). Group sizes for each treatment were 6-8 animals. After 30 min, premeasured food was placed into the cages. Two hours later, the food was weighed again. The difference between 2 hr weight and the premeasured weight was taken as 2 hr food intake.

For data set [2], the system named is Long-Evans male rats. Put plainly: Icv administration of compounds in food-deprived Long-Evans male rats, food intake. The data set is classed as in vivo. The settings on record: Long-Evans male rats food deprived for 16 hours; I.C.V. injection in DMSO, 20 μl; 4 hours post-injection; vehicle 8.69 ± 0.53; * significantly different from vehicle, p < 0.05. On the procedure: Protocol for Icv Administration of Compounds in Food-Deprived Long-Evans Male Rats
(§1) Adult male Long-Evans rats (approx. 275 g) were obtained from Charles River Laboratories (Wilmington, MA) and given one week to acclimate to the animal facility. Animals were housed individually and given ad-lib access to food and water. After acclimation, animals were anesthetized (75 mg/kg Sodium Nembutal) and implanted with 23 g cannulas (Plastics One, Roanoke, VA) into the right lateral cerebral ventricle. All animals were given at least 1 week post-operative recover before any experiment.
Animals were food deprived for 16 hours prior to injections. Intracerebroventricular injection of compounds was done in awake, unrestrained animals in a DMSO vehicle in a volume of 20 μl. Immediately following the injection, the animals were returned to their home cage and were provided with a pre-weighed portion of regular rat chow pellets. Total food consumed was measured at 2 and 4 hours post-injection.

For a further data set, the system named is pNPY induced feeding. Put plainly: Icv administration of NPY antagonists against pNPY induced feeding in satiated Long-Evans male rats. The data set is classed as in vivo. The settings on record: I.C.V. antagonist in DMSO 20 μl, about 15 min later 5 μl pNPY, high sucrose mash, 4 hours post-injection, vehicle 5.29 ± 0.97, * significantly different from vehicle, p < 0.05. As to the method:
Protocol for Icv Administration of NPY Antagonists Against pNPY Induced Feeding in Satiated Long-Evans Male Rats
as §1
Approximately 16 hours prior to injection, animals were provided with access to 30 grams of a sucrose/condensed milk/rat chow mash along with their regular chow. Ninety minutes prior to injections, regular chow was removed from the cages and animals were provided with a fresh portion of the high sucrose mash. Intracerebroventricular injection of antagonist or vehicle was done in awake, unrestrained animals in a DMSO vehicle in a volume of 20 μl. Approximately 15 minutes after the administration of the antagonist or vehicle, animals were given a second 5 μl injection of either water or pNPY. After the second injection, the portion of high sucrose mash was weighed and total food consumed was measured at 2 and 4 hours post-injection.

Each structure is given as a SMILES string. Structures can show the parent of a compound that is named as a salt.

Take `Cc1nc(N2CCCCC2)c2[nH]c(-c3ccccc3)cc2n1` [Example 35, 2-methyl-6-phenyl-4-(piperidinyl)pyrrolo[3,2-d]pyrimidine]: the “4 hr food intake (g ± S.E.M.)” value with OB/OB female mice is 0.29 ± 0.11* g. Also, the inhibition in vivo at 30 mg/kg in the data set on Male BALB-C mice and in the data set on Long-Evans male rats [1] was at least 10% each time.

`CCc1nc(N2CCCCC2)c2oc(-c3ccc(Cl)cc3)cc2n1` [Example 96, 6-(4-Chlorophenyl)-2-ethyl-4-piperidinylfurano[3,2-d]pyrimidine] returned a melting point above 288 °C. In addition, the inhibition in vivo at 30 mg/kg with Male BALB-C mice was at least 10%. The inhibition in vivo at 30 mg/kg with Long-Evans male rats [1] is at least 10%.

`Cc1nc(N2CCCCC2)c2[nH]c(-c3cccs3)cc2n1.Cl` [Example 76c, 2-(2-Methyl-4-piperidylpyrrolo[4,5-d]pyrimidin-6-yl)thiophene Hydrochloride] returned a melting point above 280 °C. Also, the inhibition in vivo at 30 mg/kg with Male BALB-C mice is at least 10%. In addition, in the data set on Long-Evans male rats [1], the inhibition in vivo at 30 mg/kg was at least 10%.

For the compound `CCN(CC)c1nc(C)nc2cc(-c3ccccc3)[nH]c12` [Example 1f, Diethyl(2-methyl-6-phenylpyrrolo[2,3-e]pyrimidin-4-yl)amine], the melting point is 184 to 185 °C. Further, the “4 hr food intake (g ± S.E.M.)” value with Long-Evans male rats [2] is 5.13 ± 1.40* g.

For the compound `COc1ccc(-c2cc3nc(C)nc(N4CCCCC4)c3[nH]2)cc1` [Example 71e, 4-Methoxy-1-(2-methyl-4-piperidylpyrrolo[4,5-d]pyrimidin-6-yl)benzene Hydrochloride Monohydrate], the inhibition in vivo at 30 mg/kg in the data set with Male BALB-C mice and in the data set on Long-Evans male rats [1] was at least 10% in each case.

As for `Cc1nc(N2CCCCC2)c2[nH]c(-c3cc4ccccc4o3)cc2n1` [Example 85, 2-(2-Methyl-4-piperidylpyrrolo[4,5-d]pyrimidin-6-yl)benzo[b]furan Hydrochloride Monohydrate], the inhibition in vivo at 30 mg/kg in the data set with Male BALB-C mice and in the data set on Long-Evans male rats [1] was at least 10% in each case.

For `Cc1nc(NC[C@H]2CC[C@H](CNS(=O)(=O)c3cccc4ccccc34)CC2)c2[nH]c(-c3ccccc3)cc2n1` [Example 194, trans-[(4-{[(2-Methyl-6-phenylpyrrolo[2,3-e]pyrimidin-4-yl)amino]methyl}cyclohexyl)methyl](naphthylsulfonyl)amine Hydrochloride Hydrate], the inhibition in vivo at 30 mg/kg in the data set with Male BALB-C mice and in the data set on Long-Evans male rats [1] was at least 10% throughout.

`Cc1nc(N2CCCCC2)c2[nH]c(-c3ccc(OC(F)(F)F)cc3)cc2n1` [Example 195d, Trifluoro[4-(2-methyl-4-piperidylpyrrolo[4,5-d]pyrimidin-6-yl)phenoxylmethane Hydrochloride Monohydrate]: the inhibition in vivo at 30 mg/kg with Male BALB-C mice and in the data set on Long-Evans male rats [1] was at least 10% each time.

In the case of `Cl.c1ccc(-c2cc3nc(C4CC4)nc(N4CCCCC4)c3[nH]2)cc1` [Example 69c, 2-Cyclopropyl-6-phenyl-4-piperidylpyrrolo[3,2-d]pyrimidine Hydrochloride], the melting point was 285.4 to 286 °C (dec.). Besides, the inhibition in vivo at 30 mg/kg with Male BALB-C mice was at least 10%. Moreover, in the data set with Long-Evans male rats [1], the inhibition in vivo at 30 mg/kg is at least 10%.

As to `Cc1nc(N2CCCCC2)c2[nH]c(-c3cc(C(F)(F)F)cc(C(F)(F)F)c3)cc2n1.Cl` [Example 122, 6-((3,5-bis(Trifluoromethyl)phenyl)-2-methyl-4-piperidylpyrrolo[3,2-d]pyrimidine Hydrochloride], the inhibition in vivo at 30 mg/kg in the data set with Male BALB-C mice and in the data set on Long-Evans male rats [1] was at least 10% in each case.

For the compound `Cc1nc(N2CCc3ccccc3C2)c2[nH]c(-c3ccccc3)cc2n1` [Example 2], the melting point is 251 to 253 °C (dec.). The “4 hr food intake (g ± S.E.M.)” value in the data set on pNPY induced feeding was 3.35 ± 0.62* g.

For the compound `Cc1nc(N2CCCCC2)c2[nH]c(-c3ccc(C)c(C)c3)cc2n1` [Example 124, 6-(3,4-Dimethylphenyl)-2-methyl-4-piperidylpyrrolo[3,2-d]pyrimidine Hydrochloride Hydrate], the inhibition in vivo at 30 mg/kg in the data set on Male BALB-C mice and in the data set with Long-Evans male rats [1] was at least 10% throughout.

Turning to `Cc1nc(N2CCCCC2)c2[nH]c(-c3ccc(SC(F)(F)F)cc3)cc2n1` [Example 123, Trifluoro[4-(2-methyl-4-piperidylpyrrolo[4,5-d]pyrimidin-6-yl)phenylthio]methane Hydrochloride Monohydrate], the inhibition in vivo at 30 mg/kg with Male BALB-C mice and in the data set on Long-Evans male rats [1] was at least 10% each time.

`CCCc1nc(N2CCCCC2)c2[nH]c(-c3ccccc3)cc2n1` [Example 196c, 6-Phenyl-4-piperidyl-2-propylpyrrolo[3,2-d]pyrimidine Hydrochloride Monohydrate]: the inhibition in vivo at 30 mg/kg in the data set on Male BALB-C mice and in the data set with Long-Evans male rats [1] was at least 10% in each case.

With `Cc1nc(N2CC=CC2)c2[nH]c(-c3cccc(Cl)c3)cc2n1` [Example 198, 6-(3-Chlorophenyl)-2-methyl-4-(3-pyrrolinyl)pyrrolo[3,2-d]pyrimidine Hydrochloride Hydrate], the inhibition in vivo at 30 mg/kg with Male BALB-C mice and in the data set on Long-Evans male rats [1] was at least 10% each time.

The melting point is the temperature of the solid-liquid transition.

The values above are taken from patent US6583154B1, “Compounds and methods which modulate feeding behavior and related diseases” (Amgen Inc., priority 1998, dated 2003).
